Test in all cases: Protein kinase activity in the presence of compound
Format in all cases: biochemical

In experiment [1] the target is T1, CHK1 (Homo sapiens, UniProt O14757).
T1 sequence (O14757 1-476): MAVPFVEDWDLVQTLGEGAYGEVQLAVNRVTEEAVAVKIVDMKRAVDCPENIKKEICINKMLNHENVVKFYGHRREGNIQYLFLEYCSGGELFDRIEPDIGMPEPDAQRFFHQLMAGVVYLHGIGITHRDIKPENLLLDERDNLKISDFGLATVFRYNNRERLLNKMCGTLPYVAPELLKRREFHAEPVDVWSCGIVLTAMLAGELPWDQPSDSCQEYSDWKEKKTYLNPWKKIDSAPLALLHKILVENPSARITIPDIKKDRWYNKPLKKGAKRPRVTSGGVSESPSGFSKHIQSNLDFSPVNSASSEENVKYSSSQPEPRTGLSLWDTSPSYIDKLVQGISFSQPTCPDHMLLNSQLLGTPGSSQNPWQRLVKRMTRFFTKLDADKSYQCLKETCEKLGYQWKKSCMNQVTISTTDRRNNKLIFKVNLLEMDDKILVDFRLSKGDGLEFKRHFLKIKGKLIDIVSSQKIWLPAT
The conditions noted are these: read-out: Residual activity CHK1. The protocol:
(§1) The action of the compound of formula (14) was tested on a selection of 29 different protein kinases. The activity of these enzymes was measured in the presence of 10 μM of compound, according to the general methodology described by Bain et al. (2003) Biochem. J. 371:199-204 and Davies et al. (2000) Biochem. J. 351:95-105.
(§2) Residual enzyme activity of protein kinases in the presence of inhibitor compounds at the concentration given (expressed as a percentage of the activity measured in the absence of inhibitors). The results obtained for gossypol and gossypolone are given by way of comparison.

Experiment [2] deals with CK1. The conditions noted are these: 10 μM compound; percentage of the activity measured in the absence of inhibitors. The protocol:
as §1, §2

For experiment [3], the target named is CK2 (Homo sapiens, UniProt P68400). To be noted: read-out: Residual activity CK2. The method, then: as §1, §2
Chain of CK2 (P68400 whole entry): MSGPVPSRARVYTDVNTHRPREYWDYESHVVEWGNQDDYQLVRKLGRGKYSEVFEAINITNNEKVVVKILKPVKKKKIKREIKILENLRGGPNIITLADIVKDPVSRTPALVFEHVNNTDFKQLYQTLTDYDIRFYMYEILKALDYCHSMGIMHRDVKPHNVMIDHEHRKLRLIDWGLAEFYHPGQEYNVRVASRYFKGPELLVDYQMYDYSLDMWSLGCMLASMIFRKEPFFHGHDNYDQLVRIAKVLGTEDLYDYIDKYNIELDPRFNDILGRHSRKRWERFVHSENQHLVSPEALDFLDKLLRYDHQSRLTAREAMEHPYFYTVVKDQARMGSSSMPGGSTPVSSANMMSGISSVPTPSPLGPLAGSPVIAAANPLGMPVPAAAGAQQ
The target in experiment [4] is CSK (Homo sapiens, UniProt P41240). To be noted: read-out: Residual activity CSK. The protocol:
as §1, §2

Experiment [5] concerns the target GSK3b (Homo sapiens, UniProt P49841). To be noted: read-out: Residual activity GSK3b. The protocol:
as §1, §2

For experiment [6], the target named is JNK/SAPK1c (Homo sapiens, UniProt P45983). The conditions noted are these: read-out: Residual activity JNK/SAPK1c. The protocol: as §1, §2
Chain of JNK/SAPK1c (P45983 whole entry): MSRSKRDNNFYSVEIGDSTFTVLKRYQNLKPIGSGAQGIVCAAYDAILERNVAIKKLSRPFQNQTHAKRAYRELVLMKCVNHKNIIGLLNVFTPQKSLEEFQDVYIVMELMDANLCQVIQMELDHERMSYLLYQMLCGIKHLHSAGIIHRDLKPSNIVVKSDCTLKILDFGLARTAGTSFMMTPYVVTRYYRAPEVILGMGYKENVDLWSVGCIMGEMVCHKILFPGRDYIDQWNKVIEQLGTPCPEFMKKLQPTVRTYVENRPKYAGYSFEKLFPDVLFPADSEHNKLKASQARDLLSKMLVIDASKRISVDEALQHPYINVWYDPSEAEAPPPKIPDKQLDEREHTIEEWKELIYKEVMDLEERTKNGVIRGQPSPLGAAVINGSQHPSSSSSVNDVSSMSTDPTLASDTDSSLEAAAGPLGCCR
Experiment [7] has as its target Lck (Homo sapiens, UniProt P06239). The conditions noted are these: read-out: Residual activity Lck. The protocol: as §1, §2
The target in experiment [8] is MAPK2/ERK2 (Homo sapiens, UniProt P28482). To be noted: read-out: Residual activity MAPK2/ERK2. The protocol: as §1, §2
Chain of MAPK2/ERK2 (P28482 whole entry): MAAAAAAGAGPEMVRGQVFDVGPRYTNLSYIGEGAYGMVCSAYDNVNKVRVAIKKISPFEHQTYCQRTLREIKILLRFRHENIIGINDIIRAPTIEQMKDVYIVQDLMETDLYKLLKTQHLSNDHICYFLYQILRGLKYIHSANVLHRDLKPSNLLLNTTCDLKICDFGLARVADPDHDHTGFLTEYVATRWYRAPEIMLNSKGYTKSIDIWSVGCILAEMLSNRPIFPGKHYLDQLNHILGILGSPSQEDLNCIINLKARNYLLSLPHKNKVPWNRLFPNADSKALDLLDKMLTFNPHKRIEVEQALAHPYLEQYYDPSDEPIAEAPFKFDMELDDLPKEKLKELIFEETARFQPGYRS
Experiment [9] deals with MAPKAP-K1a (Homo sapiens, UniProt Q15418). To be noted: read-out: Residual activity MAPKAP-K1a. The protocol: as §1, §2
Chain of MAPKAP-K1a (Q15418 whole entry, species assumed): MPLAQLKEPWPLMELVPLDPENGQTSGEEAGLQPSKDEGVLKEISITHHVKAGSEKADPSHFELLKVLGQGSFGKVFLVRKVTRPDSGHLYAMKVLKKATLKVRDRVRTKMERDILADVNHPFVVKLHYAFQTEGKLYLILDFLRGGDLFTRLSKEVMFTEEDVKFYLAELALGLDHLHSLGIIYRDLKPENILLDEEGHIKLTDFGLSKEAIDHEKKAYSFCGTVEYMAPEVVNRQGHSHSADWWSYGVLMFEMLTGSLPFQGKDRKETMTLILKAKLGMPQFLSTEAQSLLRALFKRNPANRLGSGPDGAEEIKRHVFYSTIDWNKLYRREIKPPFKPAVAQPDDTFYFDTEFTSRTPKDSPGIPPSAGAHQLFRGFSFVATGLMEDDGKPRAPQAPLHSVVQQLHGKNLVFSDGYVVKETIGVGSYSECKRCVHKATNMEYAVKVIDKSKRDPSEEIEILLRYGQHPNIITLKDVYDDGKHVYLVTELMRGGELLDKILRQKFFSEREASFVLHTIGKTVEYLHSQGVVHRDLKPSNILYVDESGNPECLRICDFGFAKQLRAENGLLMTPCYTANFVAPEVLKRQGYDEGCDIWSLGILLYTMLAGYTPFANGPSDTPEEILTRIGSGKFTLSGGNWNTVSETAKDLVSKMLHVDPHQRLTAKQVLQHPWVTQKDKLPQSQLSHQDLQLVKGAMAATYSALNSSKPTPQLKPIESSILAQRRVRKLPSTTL
The target in experiment [10] is MKK1 (Homo sapiens, UniProt Q02750). To be noted: read-out: Residual activity MKK1. The method, then:
as §1, §2

Experiment [11] addresses MSK1 (Homo sapiens, UniProt O75582). The conditions noted are these: read-out: Residual activity MSK1. The protocol:
as §1, §2

The target in experiment [12] is NEK6 (Homo sapiens, UniProt Q9HC98). The conditions noted are these: read-out: Residual activity NEK6. The method, then:
as §1, §2

In experiment [13] the target is T2, PDK1 (Homo sapiens, UniProt O15530).
T2 sequence (O15530 1-556): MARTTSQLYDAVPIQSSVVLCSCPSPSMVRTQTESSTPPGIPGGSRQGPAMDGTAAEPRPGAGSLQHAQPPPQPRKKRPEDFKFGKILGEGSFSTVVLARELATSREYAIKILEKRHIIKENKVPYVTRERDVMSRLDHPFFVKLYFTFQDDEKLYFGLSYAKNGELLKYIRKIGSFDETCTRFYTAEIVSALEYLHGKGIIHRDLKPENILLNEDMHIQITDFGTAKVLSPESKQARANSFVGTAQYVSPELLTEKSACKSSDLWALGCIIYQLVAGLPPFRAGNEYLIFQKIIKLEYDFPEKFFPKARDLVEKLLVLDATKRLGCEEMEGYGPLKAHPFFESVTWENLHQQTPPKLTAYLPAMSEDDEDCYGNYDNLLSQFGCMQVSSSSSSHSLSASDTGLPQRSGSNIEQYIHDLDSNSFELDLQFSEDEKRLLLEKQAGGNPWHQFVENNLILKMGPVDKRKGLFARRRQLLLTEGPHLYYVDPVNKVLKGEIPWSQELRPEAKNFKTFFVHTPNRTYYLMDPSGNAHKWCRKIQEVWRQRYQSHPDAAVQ
The conditions noted are these: read-out: Residual activity PDK1. The protocol:
as §1, §2

Experiment [14] has as its target PHK (Oryctolagus cuniculus, UniProt P00518). To be noted: read-out: Residual activity PHK. The method, then: as §1, §2
The target of experiment [15] is PKA (Homo sapiens, UniProt P17612). To be noted: read-out: Residual activity PKA. The protocol:
as §1, §2

The subject of experiment [16] is PKB?ph. To be noted: 10 μM compound; percentage of the activity measured in the absence of inhibitors. The method, then:
as §1, §2

Experiment [17] concerns the target T3, PRAK (Homo sapiens, UniProt Q8IW41).
T3 sequence (Q8IW41 1-473): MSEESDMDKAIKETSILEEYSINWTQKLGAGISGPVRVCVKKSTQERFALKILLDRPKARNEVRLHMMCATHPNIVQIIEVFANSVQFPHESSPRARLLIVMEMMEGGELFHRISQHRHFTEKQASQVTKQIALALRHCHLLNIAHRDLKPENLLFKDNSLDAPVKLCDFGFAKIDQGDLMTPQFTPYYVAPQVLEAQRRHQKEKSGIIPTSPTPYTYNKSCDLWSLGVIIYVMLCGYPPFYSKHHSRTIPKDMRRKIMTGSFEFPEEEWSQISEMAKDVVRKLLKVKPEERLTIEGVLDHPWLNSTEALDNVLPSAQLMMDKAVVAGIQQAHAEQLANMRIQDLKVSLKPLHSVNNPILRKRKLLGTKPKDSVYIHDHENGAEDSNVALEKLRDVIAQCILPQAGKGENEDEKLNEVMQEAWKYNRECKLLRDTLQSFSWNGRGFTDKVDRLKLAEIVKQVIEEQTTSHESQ
The conditions noted are these: for remaining activity at 10 µM: read-out: Residual activity PRAK. The protocol:
as §1, §2

The test system of experiment [18] is p70 S6K. The conditions noted are these: 10 μM compound; percentage of the activity measured in the absence of inhibitors. The protocol:
as §1, §2

Setting [19] is: 10 μM compound, percentage of the activity measured in the absence of inhibitors.

Structures are written as SMILES. Read-outs that look alike come from different tables or passages of the source.

Chain of MSK1 (O75582 whole entry, species assumed): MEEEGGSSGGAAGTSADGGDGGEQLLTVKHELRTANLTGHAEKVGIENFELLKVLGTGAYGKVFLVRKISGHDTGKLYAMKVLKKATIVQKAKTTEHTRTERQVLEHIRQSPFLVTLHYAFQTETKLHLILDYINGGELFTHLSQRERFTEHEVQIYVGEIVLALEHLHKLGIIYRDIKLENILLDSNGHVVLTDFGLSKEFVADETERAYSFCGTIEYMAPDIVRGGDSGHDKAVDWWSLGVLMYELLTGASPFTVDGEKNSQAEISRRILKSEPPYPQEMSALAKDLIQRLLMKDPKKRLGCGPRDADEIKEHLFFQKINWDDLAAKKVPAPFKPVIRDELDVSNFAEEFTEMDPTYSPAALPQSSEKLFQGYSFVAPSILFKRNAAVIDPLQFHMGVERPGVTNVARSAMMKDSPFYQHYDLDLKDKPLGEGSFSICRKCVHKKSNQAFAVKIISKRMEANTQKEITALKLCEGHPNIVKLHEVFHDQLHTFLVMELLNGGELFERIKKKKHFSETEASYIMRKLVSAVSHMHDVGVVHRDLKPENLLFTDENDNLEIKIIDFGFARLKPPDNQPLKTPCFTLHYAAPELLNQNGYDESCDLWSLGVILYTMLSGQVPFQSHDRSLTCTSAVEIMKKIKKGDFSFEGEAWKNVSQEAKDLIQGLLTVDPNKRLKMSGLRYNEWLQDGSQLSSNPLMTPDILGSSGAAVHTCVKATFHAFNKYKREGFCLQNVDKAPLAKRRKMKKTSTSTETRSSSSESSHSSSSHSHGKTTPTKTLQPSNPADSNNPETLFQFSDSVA
Chain of MKK1 (Q02750 whole entry, species assumed): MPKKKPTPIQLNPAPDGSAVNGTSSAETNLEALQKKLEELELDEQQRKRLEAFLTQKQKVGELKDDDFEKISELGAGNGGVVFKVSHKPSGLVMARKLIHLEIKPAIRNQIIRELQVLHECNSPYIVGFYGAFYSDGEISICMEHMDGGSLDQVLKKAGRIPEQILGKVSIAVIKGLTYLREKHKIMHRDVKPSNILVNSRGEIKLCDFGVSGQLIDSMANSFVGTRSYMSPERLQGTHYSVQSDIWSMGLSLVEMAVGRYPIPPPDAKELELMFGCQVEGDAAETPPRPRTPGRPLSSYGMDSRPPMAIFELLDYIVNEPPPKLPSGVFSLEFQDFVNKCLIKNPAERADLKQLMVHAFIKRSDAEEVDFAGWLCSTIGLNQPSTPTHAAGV
Chain of Lck (P06239 whole entry, species assumed): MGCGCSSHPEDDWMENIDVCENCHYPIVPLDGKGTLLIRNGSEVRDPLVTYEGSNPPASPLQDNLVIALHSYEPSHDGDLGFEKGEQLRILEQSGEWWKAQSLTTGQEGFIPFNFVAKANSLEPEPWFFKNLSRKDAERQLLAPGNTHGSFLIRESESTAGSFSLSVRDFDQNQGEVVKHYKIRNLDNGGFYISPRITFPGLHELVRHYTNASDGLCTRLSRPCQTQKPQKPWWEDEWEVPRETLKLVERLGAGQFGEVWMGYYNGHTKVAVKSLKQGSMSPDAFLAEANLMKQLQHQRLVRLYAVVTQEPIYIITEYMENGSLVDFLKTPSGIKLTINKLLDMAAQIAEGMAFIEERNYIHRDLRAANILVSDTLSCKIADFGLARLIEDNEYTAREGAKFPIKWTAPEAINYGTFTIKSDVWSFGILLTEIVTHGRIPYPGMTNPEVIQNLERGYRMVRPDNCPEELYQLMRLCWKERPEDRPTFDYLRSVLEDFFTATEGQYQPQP
Chain of NEK6 (Q9HC98 whole entry, species assumed): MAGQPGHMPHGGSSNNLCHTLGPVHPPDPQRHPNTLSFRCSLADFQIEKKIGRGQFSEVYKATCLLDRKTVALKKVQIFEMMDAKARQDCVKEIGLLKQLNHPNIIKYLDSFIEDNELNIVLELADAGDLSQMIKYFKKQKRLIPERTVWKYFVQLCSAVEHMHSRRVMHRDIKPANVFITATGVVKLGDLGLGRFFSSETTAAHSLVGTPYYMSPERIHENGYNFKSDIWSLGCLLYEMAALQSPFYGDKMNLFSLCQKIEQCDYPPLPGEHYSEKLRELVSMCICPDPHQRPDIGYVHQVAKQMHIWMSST
Chain of GSK3b (P49841 whole entry, species assumed): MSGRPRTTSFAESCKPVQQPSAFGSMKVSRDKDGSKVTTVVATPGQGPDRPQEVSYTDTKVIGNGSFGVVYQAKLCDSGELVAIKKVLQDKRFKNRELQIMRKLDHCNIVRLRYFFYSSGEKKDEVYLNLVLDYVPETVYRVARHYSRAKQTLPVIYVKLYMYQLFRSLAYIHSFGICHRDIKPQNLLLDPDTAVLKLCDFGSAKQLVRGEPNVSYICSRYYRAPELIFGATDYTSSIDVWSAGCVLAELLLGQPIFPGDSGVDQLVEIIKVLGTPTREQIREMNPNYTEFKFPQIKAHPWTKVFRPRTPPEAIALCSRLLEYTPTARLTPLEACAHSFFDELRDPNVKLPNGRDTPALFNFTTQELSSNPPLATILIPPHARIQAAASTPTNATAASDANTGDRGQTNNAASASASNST
Chain of CSK (P41240 whole entry, species assumed): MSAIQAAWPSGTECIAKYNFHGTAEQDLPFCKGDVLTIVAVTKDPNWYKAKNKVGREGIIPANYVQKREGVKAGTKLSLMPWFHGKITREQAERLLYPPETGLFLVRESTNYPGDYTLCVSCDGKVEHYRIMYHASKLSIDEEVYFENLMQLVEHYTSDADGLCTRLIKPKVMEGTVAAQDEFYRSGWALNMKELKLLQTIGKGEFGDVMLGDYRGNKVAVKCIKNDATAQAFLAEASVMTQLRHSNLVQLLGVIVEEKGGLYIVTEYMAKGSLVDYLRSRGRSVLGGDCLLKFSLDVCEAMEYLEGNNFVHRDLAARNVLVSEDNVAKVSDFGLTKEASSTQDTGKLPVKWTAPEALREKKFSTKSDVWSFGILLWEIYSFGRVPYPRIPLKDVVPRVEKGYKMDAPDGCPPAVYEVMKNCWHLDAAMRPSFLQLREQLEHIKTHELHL

With `CC1=C(C2=C(C)C(=O)c3c(c(O)c(O)c(O)c3C(C)C)C2=O)C(=O)c2c(O)c(O)c(O)c(C(C)C)c2C1=O` [Compound (4), 6,7,8,6′,7′,8′-hexahydroxy-5,5′-diisopropyl-3,3′-dimethyl-[2.2′]binaphthalenyl-1,4,1′,4′-tetraone], the remaining activity at 10 µM in experiment [1] worked out at 127%; in experiment [3], 80%; in experiment [4] it was 93%; in [5] it was 63%; in experiment [6], 105%; in experiment [7], 71%. The remaining activity at 10 µM in experiment [8] stood at 52%; in [9], 58%; in experiment [10], 59%; in experiment [11], 69%; in experiment [12], 86%; in experiment [13], 88%. Besides, the remaining activity at 10 µM in experiment [14] is 47%; in [15], 69%; in experiment [17], 9%. Further, the “Residual activity CK1” value in experiment [2] is recorded as 88%. In addition, in experiment [16], the “Residual activity PKB?ph” value was found to be 39%. In experiment [17] (10 μM compound), the “Reduction of the activity of PRAK” value was 91%. The “Residual activity p70 S6K” value in experiment [18] was determined as 34%.

Take `CC1=C(C2=C(C)C(=O)c3c(c(CSCCO)c(O)c(O)c3C(C)C)C2=O)C(=O)c2c(CSCCO)c(O)c(O)c(C(C)C)c2C1=O` [Compound (14), 6,7,6′,7′-tetrahydroxy-8,8′-bis-(2-hydroxy-ethylsulphanylmethyl)-5,5′-diisopropyl-3,3′-dimethyl-[2,2′]binaphthalenyl-1,4,1′,4′-tetraone]: the remaining activity at 10 µM in experiment [1] (setting [19]) came out at 47%; in experiment [3] (setting [19]), 85%; in experiment [4] (setting [19]), 60%; in [5] (setting [19]), 85%; in experiment [6] (setting [19]) it was 88%; in [7] (setting [19]), 54%. Also, the remaining activity at 10 µM in experiment [8] (setting [19]) amounted to 58%; in [9] (setting [19]) it was 60%; in experiment [10] (setting [19]), 90%; in experiment [11] (setting [19]), 83%; in experiment [12] (setting [19]), 81%; in [13] (setting [19]), 65%. Also, the remaining activity at 10 µM in experiment [14] (setting [19]) turned out to be 27%; in experiment [15] (setting [19]), 59%; in experiment [17] (setting [19]), 9%. Also, the “Residual activity CK1” value in experiment [2] was determined as 77%. In addition, in experiment [16], the “Residual activity PKB?ph” value amounted to 76%. The “Reduction of the activity of PRAK” value in experiment [17] (10 μM compound) is 91%. Besides, the “Residual activity p70 S6K” value in experiment [18] was found to be 52%.

Turning to `Cc1cc2c(C(C)C)c(O)c(O)c(C=O)c2c(O)c1-c1c(C)cc2c(C(C)C)c(O)c(O)c(C=O)c2c1O` [Gossypol, gossypol], the remaining activity at 10 µM in [1] was 9%; in experiment [3] it was 80%; in experiment [4] it was 103%; in [5], 47%; in experiment [6], 90%; in experiment [7], 76%. For the same compound, the remaining activity at 10 µM came out at 65% in experiment [8]; 77% in [9]; 86% in experiment [10]; 79% in [11]; 92% in [12]; 71% in experiment [13]. Moreover, the remaining activity at 10 µM in experiment [14] was 23%; in experiment [15], 47%; in experiment [17], 48%. Moreover, the “Residual activity CK1” value in experiment [2] stood at 89%. Also, the “Residual activity PKB?ph” value in experiment [16] is reported as 94%. The “Residual activity p70 S6K” value in experiment [18] is given as 110%.

On to `CC1=C(C2=C(C)C(=O)c3c(c(C=O)c(O)c(O)c3C(C)C)C2=O)C(=O)c2c(C=O)c(O)c(O)c(C(C)C)c2C1=O` [Gossypolone, gossypolone, reference compound], for which the remaining activity at 10 µM in [1] was 24%; in experiment [3] it was 79%; in experiment [4], 64%; in [5], 43%; in experiment [6], 86%; in experiment [7] it was 60%. The remaining activity at 10 µM in experiment [8] turned out to be 46%; in experiment [9], 55%; in [10], 76%; in experiment [11], 85%; in experiment [12], 89%; in [13], 51%. Also, the remaining activity at 10 µM in experiment [14] amounted to 21%; in [15], 69%; in [17] it was 9%. Also, in experiment [2], the “Residual activity CK1” value was 64%. The “Residual activity PKB?ph” value in [16] amounted to 53%. The “Residual activity p70 S6K” value in experiment [18] worked out at 35%.

The values are drawn from patent publication US7851510B2, “Gossypol derivatives, production method thereof and uses of same” (Centre National de la Recherche Scientifique (C.N.R.S.), priority 2004, dated 2010).
